Reference: patent US20180078482A1, “COMPOSITION CONTAINING THEASAPOGENOL DERIVATIVE AS ACTIVE INGREDIENT” (AMOREPACIFIC CORPORATION, priority 2015, published 2018)

Assays:
Fibroblasts = experiment: Promotion of collagen biosynthesis (procollagen type (I) ELISA in fibroblasts); format: cell-based; settings: 2 μg/ml, 24 hours, untreated group set to 100
Protocol: The collagen biosynthesis promoting effect of the theasapogenol derivative obtained in Preparation Example 1 was measured in comparison with TGF-beta of a positive control.
Fibroblasts were seeded by 10^5 in one well of a 24-well plate and incubated until they grew up to about 90%. This was incubated in serum-free DMEM medium for 24 hours and treated with 2 μg/ml of each of the theasapogenol derivative obtained in Preparation Example 1 and TGF-beta, and incubated in a CO2 incubator for 24 hours. Thereafter, the supernatant was taken out and subjected to the observation using the ELISA kit (procollagen type (I)) to determine whether the procollagen increased or decreased. The results are presented in Table 1, and the collagen synthesizing ability was compared by setting the collagen synthesizing ability of the untreated group to 100.

5α-reductase = biological target: T1, 5α-reductase (Homo sapiens, UniProt P31213); experiment: Inhibition of 5α-reductase activity ([14C]testosterone to [14C]dihydrotestosterone conversion in HEK293-5αR2 cells); format: cell-based; settings: 2 μg/ml, 2 hours at 37° C.; for Conversion rate (%): radioactivity to DHT area/total radioactivity
T1 construct: 3×FLAG; expressed in transfected cells; host or cells: HEK293
T1 sequence (P31213 1-254): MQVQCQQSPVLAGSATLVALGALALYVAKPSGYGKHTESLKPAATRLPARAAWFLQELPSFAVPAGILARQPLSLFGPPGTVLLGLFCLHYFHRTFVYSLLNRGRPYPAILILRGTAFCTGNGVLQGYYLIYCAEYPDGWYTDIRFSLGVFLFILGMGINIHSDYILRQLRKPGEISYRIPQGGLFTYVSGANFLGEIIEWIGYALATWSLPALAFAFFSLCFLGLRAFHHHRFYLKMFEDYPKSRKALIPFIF
Protocol: The 5α-reductase activity inhibiting effect was measured by the ratio of [^14C]testosterone converted into [^14C]dihydrotestosterone in HEK293-5αR2 cells. HEK293 cells were transfected with p3×FLAG-CMV-5αR2 and incubated in a 24-well plate at a density of 2.5×10^5 cells per well (Park et al., 2003, JDS Vol. 31, pp. 91-98). The next day, the medium was replaced with a fresh medium containing an enzyme substrate and an inhibitor, and 0.05 μCi [^14C]testosterone (Amersham Pharmacia biotech, UK) was used as the substrate of the medium. In order to confirm the degree of inhibition, 2 μg/ml of theasapogenol derivative obtained in Preparation Example 1 was added to the medium as a test substance, and the medium was incubated in a 5% CO2 incubator at 37° C. for 2 hours.
Thereafter, the incubated mediums were collected and testosterone was extracted with 800 μl of ethyl acetate. The upper organic solvent layer was separated and dried, and the residue was dissolved again in 50 μl of ethyl acetate and developed on the silica plastic sheet kieselgel 60 F254 by using ethyl acetate-hexane (1:1) as a developing solvent. After the plastic sample was dried in the air, a bath system was used to measure the amounts of isotopes, the dried plastic sheet and an x-ray film were placed in a bath cassette together, and the amounts of isotopes in testosterone and dihydrotestosterone remaining on the film after one week were measured.
(1) Conversion rate: radioactivity to DHT area/total radioactivity
(2) Inhibition rate: 100×(conversion rate of control group−conversion rate of sample)/conversion rate of control group

[1] = 100×(conversion rate of control group−conversion rate of sample)/conversion rate of control group

Compound | Collagen synthesizing ability (%) (Fibroblasts) | Inhibition rate (%) (5α-reductase; [1]) | Conversion rate (%) (5α-reductase) | inhibition at 2 µg/mL (5α-reductase; [1]) [%]
21-O-angeloyltheasapogenol E3 [Preparation Example 1] | 145.1 ± 12.5 | 38 | 30 | 
CC(C)(C)NC(=O)[C@H]1CC[C@H]2[C@@H]3CC[C@H]4NC(=O)C=C[C@]4(C)[C@H]3CC[C@]12C [Finasteride, reference compound] |  |  | 27 | 44
